Assay results reported in paper PMC8162360, “Total synthesis of biseokeaniamides A–C and late-stage electrochemically-enabled peptide analogue synthesis” (Chemical Science, 2020).
Like-named read-outs stand apart in the source and are kept apart here. Non-standard residues stand in square brackets, D forms with d. Residues, ends and D or L forms follow the SMILES beside them. *: point of attachment. NMeF = CN[C@@H](Cc1ccccc1)C(=O)O; NMeV = CN[C@H](C(=O)O)C(C)C; Butyryl = CCCC(=O)*; X1 = CN(Cc1cccs1)*

Key:
[1] = cited from earlier work
Excerpt: Probing the electrochemical generation and reactivity of N,O-acetals | column: pKa (R–OH)[27,28] || The reactivity of the methanol-derived N,O-acetal 6a was examined using a Friedel–Crafts-type reaction with thiophene in the presence of TFA (2.0 equiv.), which serves to regenerate the N-acyliminium for nucleophilic attack. […] How ...

HeLa S3 cells = assay: MTT 72 hour viability assay, HeLa S3 cells; assay type: cell-based
Procedure: (§1) Evaluation of biological activity
(§2) Cell Culture of A549 and HeLa S3 Cells
(§3) 1. A549 cells (ATCC® CCL-185) were cultured at 37 °C with 5% CO2 in DMEM/F12 (Ham)
(§4) medium (Gibco, CAT#11330-032) supplemented with 10% fetal bovine serum (FBS) (Sigma-
(§5) 2. HeLa S3 cells were cultured at 37 °C with 5% CO2 in F-12K nutrient mixture, Kaighn's
(§6) modification medium (Gibco, CAT#21127-022) supplemented with 10% fetal bovine serum
(§7) (FBS) (Sigma-Aldrich, CAT#F9423).
(§8) 3. To subculture cells, media was aspirated and cell monolayers were washed once with dPBS
(§9) (Gibco), and then detached using Trypsin-EDTA (0.25%, Gibco CAT#25200114), followed
(§10) by neutralisation with growth media. Quantitation of cell number was obtained using the Life
(§11) Technologies Countess II automated cell counter.
(§12) MTT 72 Hour Viability Assay
(§13) 1. A549 and HeLa S3 cells were seeded at 600 cells/well in 40 µL into a Corning clear 384-
(§14) well plate (CAT# 3701) using the Biotek EL406, and cultured overnight.
(§15) 2. Cells were then treated with various concentrations of compounds for 72 h. 0.2% DMSO
(§16) and 25 µM Etoposide (Sigma-Aldrich) were used as controls.
(§17) 3. 10 µL of MTT reagent (ThermoFisher, diluted to 2.5 mg/mL in DPBS) was then added to
(§18) cells and incubated at 37 °C for 1.5 h.
4. Plates were then centrifuged at 800 × g for 5 min and the supernatant flicked off. 25 µL of
isopropanol/HCl solution was then added to each well using the Biotek EL406 and the plates
5. Absorbance was then read at 570 nm using the PerkinElmer EnVision Multimode plate
6. Statistical Analysis: Results were normalised to the average blank value (media only
control), and then presented as a percentage of the control (0.2% DMSO (vehicle) treated cells)

[2] = tested on: A549 cells (ATCC CCL-185); assay type: cell-based; conditions: 72 h
Procedure: as §1, §2, §3, §4, §5, §6, §7, §8, §9, §10, §11, §12, §13, §14, §15, §16, §17, §18
4. Plates were then centrifuged at 800 × g for 5 min and the supernatant flicked off. 25 µL of […]
5. Absorbance was then read at 570 nm using the PerkinElmer EnVision Multimode plate […]

[3] = pKa of the alcohol or carboxylic acid R-OH used in the electrolysis

| IC50 (HeLa S3 cells; 72 h) | IC50 [2] | Structure (SMILES) | pKa (R–OH) [1, 3] | other results |
| --- | --- | --- | --- | --- |
| – | – | CO [Me, methanol] | 15.5 | – |
| 9.2 µM | 7.9 µM | C=CCCN(C)C(=O)[C@@H](NC(=O)[C@H](CC(C)C)NC(=O)[C@H](Cc1ccccc1)NC(C)=O)C(C)C [Compound 19] | – | cytotoxicity compared with natural products 1a-1c (HeLa S3 cells): enhanced cytotoxicity in relation to the natural products |
| – | – | O=C(O)C(Cl)(Cl)Cl [Cl3CCO] | 0.85 | – |
| – | – | OCC(F)(F)F [CF3CH2, trifluoroethanol] | – | pKa (R–OH) [1]: 12.5 |
| – | – | OC(C(F)(F)F)C(F)(F)F [(CF3)2CH, hexafluoroisopropanol] | 9.3 | – |
| 18.4 µM | 27.4 µM | CCCC(=O)N(C)[C@H](C(=O)N1CCC[C@H]1C(=O)N(C)[C@@H](Cc1ccccc1)C(=O)N[C@@H](CC(C)C)C(=O)N[C@H](C(=O)N(C)Cc1cccs1)C(C)C)C(C)C [Compound 21] (Butyryl-[NMeV]P[NMeF]LV-X1) | – | cytotoxicity compared with natural products 1a-1c (HeLa S3 cells; comparative HeLa cell viability assays, Fig. 1A, MTT, 72 h): enhanced cytotoxicity in relation to the natural products |
